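Each compound was tested at five concentrations against cells in 96-well plates for 48 hours. The concentration for full growth arrest is given as TGI.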
What was measured:
Assay in all cases: growth of human tumour cells (NCI), 48 h
[1] = system: UACC-257 melanoma
[2] = system: HCC-2998 colon
[3] = system: HT29 colon
[4] = system: HOP-62 NSCLC
[5] = system: MALME-3M melanoma
[6] = system: T-47D breast
[7] = system: HCT-116 colon
[8] = system: NCI/ADR-RES ovarian
[9] = system: A498 renal
[10] = system: SF-295 CNS
[11] = system: PC-3 prostate
[12] = system: OVCAR-5 ovarian
[13] = system: U251 CNS
[14] = system: 786-0 renal
[15] = system: NCI-H23 lung
[16] = system: UACC-62 melanoma
[17] = system: MDA-MB-231 breast
[18] = system: IGROV1 ovarian
[19] = system: RXF 393 renal
[20] = system: SW-620 colon
[21] = system: DU-145 prostate
[22] = system: HS 578T breast
[23] = system: CCRF-CEM leukemia
[24] = system: SF-268 CNS
[25] = system: ACHN renal
[26] = system: BT-549 breast
[27] = system: EKVX NSCLC
[28] = system: HCT-15 colon
[29] = system: OVCAR-3 ovarian
[30] = system: SK-MEL-2 melanoma
[31] = system: SK-MEL-28 melanoma
[32] = system: K-562 leukemia
[33] = system: SN12C renal
[34] = system: CAKI-1 renal
[35] = system: UO-31 renal
[36] = system: MCF7 breast
[37] = system: OVCAR-8 ovarian
[38] = system: RPMI-8226 leukemia
[39] = system: OVCAR-4 ovarian
[40] = system: M14 melanoma
[41] = system: SNB-19 CNS
[42] = system: KM12 colon
[43] = system: SK-MEL-5 melanoma
[44] = system: A549 NSCLC
[45] = system: MDA-N
[46] = system: COLO 205 colon
[47] = system: TK-10 renal
[48] = system: SK-OV-3 ovarian
[49] = system: MDA-MB-435
[50] = system: MOLT-4 leukemia
[51] = system: NCI-H522 lung
[52] = system: NCI-H226 lung
[53] = system: LOX IMVI melanoma
[54] = system: SNB-75 CNS
[55] = system: SF-539 CNS
[56] = system: HL-60(TB) leukemia
[57] = system: HOP-92 NSCLC
[58] = system: NCI-H460 lung

Compound: CC1(C)OC(=O)C2(O1)C(=O)C1CCCCC12 (stereo not drawn)
- TGI [1]: > 100 µM
- TGI [2]: > 100 µM
- TGI [3]: > 100 µM
- TGI [4]: > 100 µM
- TGI [5]: > 100 µM
- TGI [6]: > 100 µM
- TGI [7]: > 100 µM
- TGI [8]: > 100 µM
- TGI [9]: > 100 µM
- TGI [10]: > 100 µM
- TGI [11]: > 100 µM
- TGI [12]: > 100 µM
- TGI [13]: > 100 µM
- TGI [14]: > 100 µM
- TGI [15]: > 100 µM
- TGI [16]: > 100 µM
- TGI [17]: > 100 µM
- TGI [18]: > 100 µM
- TGI [19]: > 100 µM
- TGI [20]: > 100 µM
- TGI [21]: > 100 µM
- TGI [22]: > 100 µM
- TGI [23]: > 100 µM
- TGI [24]: > 100 µM
- TGI [25]: > 100 µM
- TGI [26]: > 100 µM
- TGI [27]: > 100 µM
- TGI [28]: > 100 µM
- TGI [29]: > 100 µM
- TGI [30]: > 100 µM
- TGI [31]: > 100 µM
- TGI [32]: > 100 µM
- TGI [33]: > 100 µM
- TGI [34]: > 100 µM
- TGI [35]: > 100 µM
- TGI [36]: > 100 µM
- TGI [37]: > 100 µM
- TGI [38]: > 100 µM
- TGI [39]: > 100 µM
- TGI [40]: > 100 µM
- TGI [41]: > 100 µM
- TGI [42]: > 100 µM
- TGI [43]: > 100 µM
- TGI [44]: > 100 µM
- TGI [45]: > 100 µM
- TGI [46]: > 100 µM
- TGI [47]: > 100 µM
- TGI [48]: > 100 µM
- TGI [49]: > 100 µM
- TGI [50]: > 100 µM
- TGI [51]: > 100 µM
- TGI [52]: > 100 µM

Compound: COc1ccc(C(=O)N(C(=S)OCCOc2ccccc2)c2ccccc2)cc1
- TGI [1]: > 100 µM
- TGI [2]: > 100 µM
- TGI [3]: > 100 µM
- TGI [4]: > 100 µM
- TGI [5]: 88.5 µM
- TGI [6]: 55.4 µM
- TGI [7]: > 100 µM
- TGI [8]: > 100 µM
- TGI [9]: 73.9 µM
- TGI [10]: > 100 µM
- TGI [11]: > 100 µM
- TGI [12]: > 100 µM
- TGI [13]: > 100 µM
- TGI [53]: > 100 µM
- TGI [14]: > 100 µM
- TGI [15]: > 100 µM
- TGI [16]: > 100 µM
- TGI [17]: > 100 µM
- TGI [18]: > 100 µM
- TGI [19]: 98.5 µM
- TGI [20]: > 100 µM
- TGI [21]: > 100 µM
- TGI [22]: > 100 µM
- TGI [23]: 66.3 µM
- TGI [24]: > 100 µM
- TGI [25]: > 100 µM
- TGI [26]: > 100 µM
- TGI [27]: 96.6 µM
- TGI [28]: > 100 µM
- TGI [29]: > 100 µM
- TGI [30]: 68.5 µM
- TGI [31]: > 100 µM
- TGI [32]: > 100 µM
- TGI [33]: > 100 µM
- TGI [34]: > 100 µM
- TGI [35]: 29.9 µM
- TGI [36]: > 100 µM
- TGI [54]: 27.9 µM
- TGI [37]: > 100 µM
- TGI [38]: 37.9 µM
- TGI [39]: > 100 µM
- TGI [40]: > 100 µM
- TGI [41]: > 100 µM
- TGI [42]: > 100 µM
- TGI [55]: > 100 µM
- TGI [44]: > 100 µM
- TGI [45]: > 100 µM
- TGI [46]: > 100 µM
- TGI [47]: > 100 µM
- TGI [48]: > 100 µM
- TGI [56]: 51.9 µM
- TGI [49]: > 100 µM
- TGI [57]: 70.4 µM
- TGI [50]: 53.8 µM
- TGI [51]: > 100 µM
- TGI [58]: > 100 µM

Source: PubChem BioAssay (NCI)
